From patent US8664289B2, “Dye and coloring photosensitive composition” (Adeka Corporation, priority 2010, dated 2014)

Key:
Format in all cases: physicochemical
Solubility in PGMEA = details: concentration when PGMEA was added dropwise to 0.1 g of the compound under stirring and was dissolved completely
Experimental: (§1) That the obtained solid was an intended product was confirmed by ^1H-NMR and IR. Furthermore, the solubility of the obtained compound was measured. The solubility was a concentration when PGMEA was added dropwise to 0.1 g of the compound under stirring and was dissolved completely. The results thereof are shown in [Table 1] to [Table 4].
as §1, with “added” for “added dropwise”, “while” for “under”, “4]” for “4].”

[1] = Evaluation of absorption wavelength property in CHCl3 solution; design: ε: unit not given here; details: for ε: molar absorption coefficient
Text: The absorption wavelength properties of Compounds Nos. 1 to 7, 16, 26, 43, 52 to 62, 65, 66, 69, 70 and 94 to 102 and Comparative Compounds Nos. 1 and 2 obtained above were each evaluated in a CHCl3 solution. The results are shown in [Table 5].

[2] = Evaluation of heat resistance by TG-DTA; details: temperature at 10% weight loss
Experimental: Compounds Nos. 1 to 7, 16, 26, 43, 52 to 62, 65, 66, 69, 70 and 94 to 102 and Comparative Compounds Nos. 1 and 2 obtained above were analyzed by TG-DTA, and the melting points and temperatures at 10% weight loss were measured. The results are shown in [Table 6].

[3] = Heat resistance of exposed coating film of coloring alkali-developable photosensitive composition; details: for Relative intensity After exposure: coating film after exposure (150 mJ/cm^2), before heating; for λmax: coating film of composition containing the compound, on glass; for Relative intensity 230° C., 30 min: exposed coating film after 230° C.
Text: 30.33 g of ACA Z250 (manufactured by Daicel Cytec Company Ltd.) and 11.04 g of ARONIX M-450 (manufactured by Toagosei Co., Ltd.) as the component (B), 1.93 g of IRGACURE 907 (manufactured by BASF) as the component (C), 36.60 g of PGMEA and 20.08 g of cyclohexanone as the component (E), as well as 0.01 g of FZ2122 (manufactured by Dow Corning Toray Co., Ltd.) as other component were mixed and stirred until insoluble components were diminished to give Alkali-developable photosensitive composition No. 1.
1.90 g of dimethylacetamide was added to 0.10 g of Compound No. 1 obtained above as the component (A) and dissolved under stirring.
5.0 g of Alkali-developable photosensitive composition No. 1 obtained in Step 1 and 1.0 g of Dye liquid No. 1 obtained in Step 2 were mixed and stirred to homogeneous to give Coloring alkali-developable photosensitive composition No. 1 of the present invention.
Coloring alkali-developable photosensitive compositions Nos. 2 to 20 were obtained in a similar manner to that in Example 2-1, except that Compound No. 1 as the component (A) in Step 2 of Example 2-1 was changed to Compound No. 2, 3, 5, 6, 16, 53, 56, 57, 59, 60, 65, 66, 94 or 96 to 101 obtained above.
Comparative coloring alkali-developable photosensitive compositions Nos. 1 and 2 were obtained in a similar manner to that in Example 2-1, except that Compound No. 1 as the component (A) in Step 2 of Example 2-1 was changed to Comparative Compound No. 1 or 2.
The coloring alkali-developable photosensitive compositions obtained in Example 2 were each applied to a glass basal plate under a condition of 410 rpm×7 sec and dried (90° C., 90 sec) on a hot plate. The obtained coating film was exposed (150 mJ/cm^2) by using an ultrahigh pressure mercury lamp. The heat resistance of the exposed coating film was investigated under conditions of 180° C.×60 min and 230° C.×30 min. The results are shown in [Table 7].
Using the coloring alkali-developable photosensitive compositions obtained in Examples 2-2 to 2-20 and Comparative Examples 2-1 and 2-2, heat resistance was investigated in a similar manner to that in Evaluation Example 3. The results are shown in [Table 7].

Row | Solubility (PGMEA) (Solubility in PGMEA) | λmax [1] [nm] | ε [1] | 10% weight loss [2] [°C] | Relative intensity After exposure [3] | λmax [3] [nm] | Relative intensity 230° C., 30 min [3] | Structure (SMILES)
1 | 10.0 wt % | 437 | 138000 | 347 | 100 | 433 | 99.5 | CCN(CC)c1ccc(/C=C(\C#N)C(=O)OCC(C)(COC(=O)/C(C#N)=C/c2ccc(N(CC)CC)cc2)COC(=O)/C(C#N)=C/c2ccc(N(c3ccccc3)c3ccccc3)cc2)cc1 (centres unmarked) [Compound No. 96]
2 | 1.0 or less wt % | 437 | 152000 | 339 | 100 | 430 | 99.9 | CCN(CC)c1ccc(/C=C(\C#N)C(=O)OCC(CC)(COC(=O)/C(C#N)=C/c2ccc(N(CC)CC)cc2)COC(=O)/C(C#N)=C/c2ccc(N(CC)CC)cc2)cc1 [Compound No. 57]
3 | 1.0 or less wt % | 428 | 119000 | 288 | 100 | 431 | 99.5 | CN(CCO)c1ccc(/C=C(\C#N)C(=O)OCC(C)(COC(=O)/C(C#N)=C/c2ccc(N(C)CCO)cc2)COC(=O)/C(C#N)=C/c2ccc(N(C)CCO)cc2)cc1 [Compound No. 98]
4 | 10.0 wt % | 417 | 103000 | 334 | 100 | 417 | 98.2 | CCN(CC)c1ccc(/C=C(\C#N)C(=O)OCC(C)(COC(=O)/C(C#N)=C/c2ccc(N3CCOCC3)cc2)COC(=O)/C(C#N)=C/c2ccc(N3CCOCC3)cc2)cc1 [Compound No. 97]
5 | 1.0 or less wt % | 453 | 135000 | 324 | – | – | – | CCCCN(CCCC)c1ccc(/C=C(\C#N)C(=O)Oc2ccc(S(=O)(=O)c3ccc(OC(=O)/C(C#N)=C/c4ccc(N(CCCC)CCCC)cc4)cc3)cc2)cc1 [Compound No. 70]
6 | 10.0 wt % | 425 | 153000 | 336 | 100 | 426 | 99.4 | CC(COC(=O)/C(C#N)=C/c1ccc(N(Cc2ccccc2)Cc2ccccc2)cc1)(COC(=O)/C(C#N)=C/c1ccc(N(Cc2ccccc2)Cc2ccccc2)cc1)COC(=O)/C(C#N)=C/c1ccc(N(Cc2ccccc2)Cc2ccccc2)cc1 [Compound No. 101]
7 | 1.0 or less wt % | 423 | 90800 | 350 | – | – | – | CN(C)c1ccc(/C=C(\C#N)C(=O)OCCCCCCCCCCOC(=O)/C(C#N)=C/c2ccc(N(C)C)cc2)cc1 [Compound No. 61]
8 | 1.0 or less wt % | 420 | 80500 | 351 | – | – | – | CCN(CCC#N)c1ccc(/C=C(\C#N)C(=O)OCCCCCCOC(=O)/C(C#N)=C/c2ccc(N(CC)CCC#N)cc2)cc1 [Compound No. 58]
9 | 1.0 or less wt % | 409 | 89900 | 366 | – | – | – | CC(=O)OCCN(CCOC(C)=O)c1ccc(/C=C(\C#N)C(=O)OCCCCCCCOC(=O)/C(C#N)=C/c2ccc(N(CCOC(C)=O)CCOC(C)=O)cc2)cc1 [Compound No. 62]
10 | 1.0 or less wt % | 448 | 107000 | 336 | – | – | – | CCCCN(CCCC)c1ccc(/C=C(\C#N)C(=O)Oc2ccc(C(c3ccc(OC(=O)/C(C#N)=C/c4ccc(N(CCCC)CCCC)cc4)cc3)(C(F)(F)F)C(F)(F)F)cc2)cc1 [Compound No. 69]
11 | 7.5 wt % | 440 | 125000 | 354 | – | – | – | CCCCN(CCCC)c1ccc(/C=C(\C#N)C(=O)OCC(C)(COC(=O)/C(C#N)=C/c2ccc(N(CCCC)CCCC)cc2)COC(=O)/C(C#N)=C/c2ccc(N(CCCC)CCCC)cc2)cc1 [Compound No. 102]

More lines, now with the values behind:

Row | Structure (SMILES) | Solubility (PGMEA) (Solubility in PGMEA) | λmax [1] [nm] | ε [1] | 10% weight loss [2] [°C] | Relative intensity After exposure [3] | λmax [3] [nm] | Relative intensity 230° C., 30 min [3]
12 | CCN(CC)c1ccc(/C=C(\C#N)C(=O)OCC(C)OC(=O)/C(C#N)=C/c2ccc(N(CC)CC)cc2)cc1 (centres unmarked) [Compound No. 2] | 4.0 wt % | 434 | 100000 | 312 | 100 | 430 | 99.3
13 | CCOCCOC(=O)/C(C#N)=C/c1ccc(N(CC)CC)cc1 [Comparative Compound No. 2, reference compound] | – | – | – | – | 100 | 433 | 24.0
14 | CCN(CC)c1ccc(/C=C(\C#N)C(=O)OCC(C)(COC(=O)/C(C#N)=C/c2ccc(N(CC)CC)cc2)COC(=O)/C(C#N)=C/c2ccc(N(CC)CC)cc2)cc1 [Compound No. 56] | 5.6 wt % | 436 | 160000 | 334 | 100 | 430 | 99.9
15 | CCN(CC)c1ccc(/C=C(\C#N)C(=O)NCCCCCCNC(=O)/C(C#N)=C/c2ccc(N(CC)CC)cc2)cc1 [Compound No. 7] | 0.2 wt % | 432 | 99600 | 352 | – | – | –
16 | CC(COC(=O)/C(C#N)=C/c1ccc(N2CCOCC2)cc1)OC(=O)/C(C#N)=C/c1ccc(N2CCOCC2)cc1 (centres unmarked) [Compound No. 43] | 1.0 or less wt % | 408 | 62800 | 318 | – | – | –
17 | CCN(CC)c1ccc(/C=C(\C#N)C(=O)Oc2ccc(-c3nc(-c4ccc(OC(=O)/C(C#N)=C/c5ccc(N(CC)CC)cc5)cc4)nc(-c4ccc(OC(=O)/C(C#N)=C/c5ccc(N(CC)CC)cc5)cc4)n3)cc2)cc1 [Compound No. 26] | 1.0 or less wt % | 447 | 210000 | 321 | – | – | –
18 | CCOC(=O)/C(C#N)=C/c1ccc(N(CC)CC)cc1 [Comparative Compound No. 1, reference compound] | – | 430 | 54900 | 259 | – | – | –
19 | CCN(CC)c1ccc(/C=C(\C#N)C(=O)OCCCCCOC(=O)/C(C#N)=C/c2ccc(N(CC)CC)cc2)cc1 [Compound No. 4] | 0.6 wt % | 431 | 110000 | 335 | – | – | –
20 | CCN(CC)c1ccc(/C=C(\C#N)C(=O)Oc2ccc(C3(c4ccc(OC(=O)/C(C#N)=C/c5ccc(N(CC)CC)cc5)cc4)CCCCC3)cc2)cc1 [Compound No. 52] | 0.6 wt % | 441 | 121000 | 322 | – | – | –
21 | CCN(CC)c1ccc(/C=C(\C#N)C(=O)NCC(C)NC(=O)/C(C#N)=C/c2ccc(N(CC)CC)cc2)cc1 (centres unmarked) [Compound No. 54] | 1.0 or less wt % | 428 | 90500 | 354 | – | – | –
22 | CCOCCOC(=O)C(C#N)=C(C)c1ccc(N(CC)CC)cc1 [Comparative Compound No. 2, reference compound] | – | 432 | 57200 | 252 | – | – | –
23 | CC(COC(=O)/C(C#N)=C/c1ccc(N(C)C)cc1)OC(=O)/C(C#N)=C/c1ccc(N(C)C)cc1 (centres unmarked) [Compound No. 55] | 1.0 or less wt % | 427 | 84600 | 323 | – | – | –
